Measured values from ChEMBL document CHEMBL4699477, “Tricyclic sulfones as potent, selective and efficacious RORγt inverse agonists - Exploring C6 and C8 SAR using late-stage functionalization” (Bioorg Med Chem Lett, 2020).
pEC50, pIC50: −log10 of the molar value. Values after ≈ are worked out from the molar mass of the structure shown.

Experiments:
[1] = Total AUC in rat at 2 mg/kg, iv; assay type: ADME, organism-based; parameters: time AUCmax, route intravenous, dose 2 mg/kg; details: in vivo
[2] = Clearance in BALB/c mouse at 2 mg/kg, iv; assay type: ADME, organism-based; details: in vivo
[3] = Half life in rat at 2 mg/kg, iv; assay type: ADME, organism-based; details: in vivo
[4] = Total AUC in cynomolgus monkey at 2 mg/kg, po; assay type: ADME, organism-based, Macaca fascicularis; parameters: route oral, time AUCmax, dose 2 mg/kg; details: in vivo
[5] = target: T1, Nuclear receptor ROR-alpha (Homo sapiens, UniProt P35398); assay: Inhibition of GAL4-fused RORalpha (unknown origin)
T1 sequence (P35398 whole entry): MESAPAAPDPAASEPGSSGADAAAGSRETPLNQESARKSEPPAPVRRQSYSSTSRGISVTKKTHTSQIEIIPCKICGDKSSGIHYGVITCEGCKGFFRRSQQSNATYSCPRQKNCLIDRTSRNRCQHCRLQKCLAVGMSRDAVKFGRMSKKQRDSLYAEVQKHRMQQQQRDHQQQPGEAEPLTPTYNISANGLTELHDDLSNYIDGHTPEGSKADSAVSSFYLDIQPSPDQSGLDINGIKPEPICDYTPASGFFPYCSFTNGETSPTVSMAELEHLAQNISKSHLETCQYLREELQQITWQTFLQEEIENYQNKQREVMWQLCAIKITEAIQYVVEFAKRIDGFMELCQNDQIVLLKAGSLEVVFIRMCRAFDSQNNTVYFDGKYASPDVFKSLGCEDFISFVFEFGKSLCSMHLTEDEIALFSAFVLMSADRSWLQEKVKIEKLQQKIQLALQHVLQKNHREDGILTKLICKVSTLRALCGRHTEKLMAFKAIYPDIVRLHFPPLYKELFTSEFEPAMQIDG

[6] = Solubility of compound at pH 6.5; assay type: physicochemical; details: buffer
[7] = Cmax in cynomolgus monkey at 2 mg/kg, po; assay type: ADME, organism-based, Macaca fascicularis; parameters: route oral, dose 2 mg/kg; details: in vivo
[8] = target: T2, Nuclear receptor ROR-gamma (Mus musculus, UniProt P51450); assay: Inverse agonist activity at RORgammat in mouse Th17 cells; assay type: cell-based
T2 sequence (P51450 whole entry): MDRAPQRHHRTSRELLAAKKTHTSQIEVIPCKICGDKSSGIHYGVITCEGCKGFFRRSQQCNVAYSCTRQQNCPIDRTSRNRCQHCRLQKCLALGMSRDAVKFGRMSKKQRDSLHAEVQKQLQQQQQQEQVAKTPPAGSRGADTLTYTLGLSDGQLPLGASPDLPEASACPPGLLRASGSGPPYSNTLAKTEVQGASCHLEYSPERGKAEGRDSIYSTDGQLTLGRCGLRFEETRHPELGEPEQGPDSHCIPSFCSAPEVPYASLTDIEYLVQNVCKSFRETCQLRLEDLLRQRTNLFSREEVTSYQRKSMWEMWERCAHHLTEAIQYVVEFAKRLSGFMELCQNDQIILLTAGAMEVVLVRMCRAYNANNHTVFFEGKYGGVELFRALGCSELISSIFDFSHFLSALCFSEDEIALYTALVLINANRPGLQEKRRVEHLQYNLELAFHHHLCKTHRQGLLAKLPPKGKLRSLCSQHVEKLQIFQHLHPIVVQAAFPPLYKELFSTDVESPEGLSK

[9] = target: T3, Nuclear receptor ROR-beta (Homo sapiens, UniProt Q92753); assay: Inhibition of GAL4-fused RORbeta (unknown origin)
T3 sequence (Q92753 whole entry): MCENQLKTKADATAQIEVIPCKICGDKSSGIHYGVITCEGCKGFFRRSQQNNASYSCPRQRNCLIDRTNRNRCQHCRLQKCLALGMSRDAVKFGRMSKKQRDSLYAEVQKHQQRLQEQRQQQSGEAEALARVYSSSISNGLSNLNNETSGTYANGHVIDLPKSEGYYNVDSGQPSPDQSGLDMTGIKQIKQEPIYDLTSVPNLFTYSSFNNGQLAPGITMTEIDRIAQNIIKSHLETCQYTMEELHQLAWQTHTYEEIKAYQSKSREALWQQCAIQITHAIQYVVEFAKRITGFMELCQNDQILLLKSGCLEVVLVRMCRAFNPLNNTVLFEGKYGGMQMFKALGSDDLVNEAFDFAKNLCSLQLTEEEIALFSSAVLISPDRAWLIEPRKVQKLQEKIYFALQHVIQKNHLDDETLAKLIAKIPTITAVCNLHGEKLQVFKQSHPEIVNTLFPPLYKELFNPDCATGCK

[10] = Half life in BALB/c mouse at 2 mg/kg, iv; assay type: ADME, organism-based; details: in vivo
Cytochrome P450 2C9 = Cytochrome P450 2C9 (Homo sapiens, UniProt P11712); assay: Inhibition of recombinant CYP2C9 (unknown origin); assay type: ADME
Cytochrome P450 2C9, sequence (P11712 whole entry): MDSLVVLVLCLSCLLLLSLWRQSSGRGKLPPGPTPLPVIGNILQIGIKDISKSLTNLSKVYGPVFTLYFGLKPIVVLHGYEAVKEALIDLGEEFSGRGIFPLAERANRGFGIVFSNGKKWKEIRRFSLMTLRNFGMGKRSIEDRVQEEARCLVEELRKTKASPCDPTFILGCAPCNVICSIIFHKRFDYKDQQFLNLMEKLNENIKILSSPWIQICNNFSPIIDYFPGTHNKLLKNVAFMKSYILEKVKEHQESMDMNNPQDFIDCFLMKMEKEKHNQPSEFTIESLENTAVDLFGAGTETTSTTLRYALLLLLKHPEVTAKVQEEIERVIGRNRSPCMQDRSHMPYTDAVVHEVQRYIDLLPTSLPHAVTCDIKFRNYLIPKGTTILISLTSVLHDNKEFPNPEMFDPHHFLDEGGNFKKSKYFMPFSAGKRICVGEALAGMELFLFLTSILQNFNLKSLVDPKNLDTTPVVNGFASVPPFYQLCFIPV

[11] = Metabolic stability in rat liver microsomes assessed as half life; assay type: ADME, Microsome
[12] = Solubility of compound at pH 7.4; assay type: physicochemical; details: buffer
[13] = Metabolic stability in mouse liver microsomes assessed as half life; assay type: ADME, Microsome
[14] = Volume of distribution at steady state in dog at 1 mg/kg, iv; assay type: ADME, organism-based, Canis lupus familiaris; details: in vivo, read-out: Vdss
Cytochrome P450 2C8 = target: T4, Cytochrome P450 2C8 (Homo sapiens, UniProt P10632); assay: Inhibition of recombinant CYP2C8 (unknown origin); assay type: ADME
T4 sequence (P10632 whole entry): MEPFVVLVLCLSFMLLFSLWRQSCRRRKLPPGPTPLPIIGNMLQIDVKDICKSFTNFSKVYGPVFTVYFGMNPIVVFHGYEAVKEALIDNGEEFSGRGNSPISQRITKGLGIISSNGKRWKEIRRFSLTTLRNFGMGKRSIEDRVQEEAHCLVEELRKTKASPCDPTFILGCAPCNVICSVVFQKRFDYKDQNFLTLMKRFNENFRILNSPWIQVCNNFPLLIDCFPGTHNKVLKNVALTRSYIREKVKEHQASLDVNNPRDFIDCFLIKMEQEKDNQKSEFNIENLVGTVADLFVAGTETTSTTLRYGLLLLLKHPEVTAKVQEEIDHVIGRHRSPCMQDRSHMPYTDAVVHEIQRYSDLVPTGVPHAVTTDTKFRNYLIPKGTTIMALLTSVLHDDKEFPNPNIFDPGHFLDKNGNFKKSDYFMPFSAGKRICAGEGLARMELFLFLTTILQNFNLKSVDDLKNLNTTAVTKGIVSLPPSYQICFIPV

[15] = Cmax in BALB/c mouse at 4 mg/kg, po; assay type: ADME, organism-based; parameters: route oral, dose 4 mg/kg; details: in vivo
[16] = Cmax in rat at 4 mg/kg, po; assay type: ADME, organism-based; parameters: route oral, dose 4 mg/kg; details: in vivo
[17] = Oral bioavailability in BALB/c mouse at 4 mg/kg; assay type: ADME, organism-based; details: in vivo
[18] = Half life in cynomolgus monkey at 1 mg/kg, iv; assay type: ADME, organism-based, Macaca fascicularis; details: in vivo

- AUC [1]: 20 µM·h
- clearance [2]: 0.15 L/h/kg
- half-life [3]: 5.8 h
- AUC [4]: 55 µM·h
- pEC50 [5]: < 5.00
- solubility [6]: 0.35 mg/mL (≈ 524 µM)
- Cmax [7]: 3.9 µM
- pEC50 [8]: 8.70
- pEC50 [9]: < 5.00
- half-life [10]: 7.7 h
- pIC50 (Cytochrome P450 2C9): < 4.70
- half-life [11]: > 2 h
- solubility [12]: 1.6 mg/mL (≈ 2400 µM)
- half-life [13]: > 2 h
- Vd [14]: 0.7 L/kg
- pIC50 (Cytochrome P450 2C8): 5.72
- Cmax [15]: 4.6 µM
- Cmax [16]: 4.1 µM
- bioavailability [17]: 98%
- half-life [18]: 27 h
SMILES: C[C@H]1C[C@H](C(=O)O)CC[C@H]1C(=O)N1CC[C@@]2(S(=O)(=O)c3ccccc3)c3cc(F)c(C(F)(C(F)(F)F)C(F)(F)F)cc3CC[C@@H]12
